Test system: platelet neutrophil complex (PNC) formation
Experiment: in vitro simulation of PNC formation (ADP-stimulated, % CD11b+CD42a+ events)
Format: cell-based, human
Conditions: 125 μg/mL; for effect on PNC formation (in words): 15 minute ingredient incubation, n=2-3 individuals, FIG. 1; for % CD11b+CD42a+ in the tested condition as a percent of those events that were CD11b+CD42a+ under ADP stimulation, average: average of subjects; for % CD11b+CD42a+ in the tested condition as a percent of those events that were CD11b+CD42a+ under ADP stimulation, average / % CD11b+CD42a+ in the tested condition as a percent of those events that were CD11b+CD42a+ under ADP stimulation: 15 minutes with ingredient, then ADP (10 μM) 15 minutes; for individuals in whom PNC formation decreased: 3 donors, Table 4
Procedure: Data was generated using an in vitro simulation of PNC formation with a 15 minute ingredient incubation period.
Test concentration was 125 μg/mL for all ingredients tested. Cells were incubated with test ingredients or medium alone (ADP) for 15 minutes. ADP (10 μM) was added to each tube and incubated for 15 minutes. The ADP alone contained no test ingredient. Data is expressed as % CD11b+CD42a+ in the tested conditions as a percent of those events that were CD11b+CD42a+ under ADP stimulation.

| Compound | effect on PNC formation (in words) | % CD11b+CD42a+ in the tested condition as a percent of those events that were CD11b+CD42a+ under ADP stimulation, average [%] | % CD11b+CD42a+ in the tested condition as a percent of those events that were CD11b+CD42a+ under ADP stimulation (subject 1) [%] | % CD11b+CD42a+ in the tested condition as a percent of those events that were CD11b+CD42a+ under ADP stimulation (subject 2) [%] | % CD11b+CD42a+ in the tested condition as a percent of those events that were CD11b+CD42a+ under ADP stimulation (subject 3) [%] | individuals in whom PNC formation decreased |
| --- | --- | --- | --- | --- | --- | --- |
| CC(=O)N[C@H]1[C@H]([C@H](O)[C@H](O)CO)O[C@@](OC[C@H]2O[C@@H](O[C@H]3[C@H](O)[C@@H](O)[C@H](O)O[C@@H]3CO)[C@H](O)[C@@H](O)[C@H]2O)(C(=O)O)C[C@@H]1O [6′SL, 6′-sialyllactose, reference compound] | do not decrease PNC formation | 94.2 | 90.1 | 59.8 | 132.8 | – |
| CC(=O)N[C@H]1[C@H]([C@H](O)[C@H](O)CO)O[C@@](O[C@H]2[C@@H](O)[C@@H](CO)O[C@@H](O[C@H]3[C@H](O)[C@@H](O)C(O)O[C@@H]3CO)[C@@H]2O)(C(=O)O)C[C@@H]1O (some centres unmarked) [3′SL, 3′-sialyllactose, reference compound] | do not decrease PNC formation | 99.2 | 91.3 | 89.3 | 117.1 | – |
| CC(=O)N[C@H]1[C@H](O[C@H]2[C@@H](O)[C@@H](CO)O[C@@H](O[C@H]3[C@H](O)[C@@H](O)C(O)O[C@@H]3CO)[C@@H]2O)O[C@H](CO)[C@@H](O[C@@H]2O[C@H](CO)[C@H](O)[C@H](O)[C@H]2O)[C@@H]1O (mixture of isomers) [LNnT, lacto-N-neotetraose] | – | 75.4 | 102.3 | 82.9 | 41.1 | decreased PNC formation in 2 out of the 3 subjects tested |
| 3-fucosyllactose [3FL] | did not decrease PNC formation | 83.1 | 80.8 | 64.3 | 104.1 | – |
| 2′-fucosyllactose [2′FL] | significantly reduces PNC formation | 66.9 | 87.8 | 62.1 | 50.7 | decreased PNC formation in all 3 individuals tested |

From US10624916B2, “Nutritional formulations using human milk oligosaccharides for modulating inflammation” (ABBOTT LABORATORIES, priority 2012, dated 2020)
